Like-named read-outs stand apart in the source and are kept apart here.

The results in this text go back to patent US20140113904A1, “TREATMENT OF CANCER WITH TOR KINASE INHIBITORS” (SIGNAL PHARMACEUTICALS, LLC, priority 2012, published 2014).

Assay type in all cases: in vivo, SCID mice
In one assay the test system is PC3 tumors. The assay is described as follows: Antitumor activity of Compound 1 in PC3 human prostate cancer xenograft model. The conditions noted are these: for tumor volume reduction compared with vehicle control: Day 31; for tumor volume reduction compared to vehicle control / tumor inhibition compared to vehicle control: day 31. The protocol:
The BID dose groups were dosed with a 10-hour separation between the morning and evening doses. […] At the end of each study, plasma and/or tumor samples were collected.
PC3 cell line was obtained from American Tissue Culture Collection (ATCC) (Gaithersberg, Md.) and grown in growth medium containing Ham's F12K medium with 2 mM L-glutamine adjusted to contain 1.5 g/L sodium bicarbonate and 10% of fetal bovine serum. The cells were detached from tissue culture flasks using trypsin-EDTA. After centrifugation, the cell pellets were suspended in phosphate buffered saline (PBS) and counted using a hemocytometer.
Mice were anesthetized with inhaled isoflurane and then inoculated with PC3 tumor cells subcutaneously on the right hind leg with 0.1 mL of single cell suspensions in Matrigel using a sterile 1 mL syringe fitted with a 26 gauge needle. Following inoculation, the mice were returned to microisolator cages.
Following inoculation, the tumors were allowed to grow to about 100 mm^3 or 500 mm^3 prior to randomization. For efficacy studies, animals with tumors of approximately 100 mm^3 were used. The typical number of days required for tumors to reach 100 mm^3 was 9 to 11 days. The tumor of each animal was measured and animals with tumors ranging between 100 and 200 mm^3 were included in the study. For tolerability and regression studies, animals with tumors of approximately 500 mm^3 (range 300-500 mm^3) were used. The typical number of days required for tumors to reach 500 mm^3 was 20 to 22 days. The animals were then distributed randomly into various cages and the cages were randomly assigned to vehicle, positive control or test article groups. All of the mice were tagged with metal ear tags on the right ear. A typical efficacy study group consisted of 8 to 10 animals. Tolerability study group consisted of 4-6 animals.
The formulations were homogenized using a Teflon™ pestle and mortar (Potter-Elvehjem tissue grinder). Between the doses, the formulated compound was stored under constant stirring using a magnetic stirrer at 4° C. in the dark. The test article and vehicle were administered by oral gavage. […] Sterile syringes and gavage needles were used for compound administration. All the procedures including injections were done in biosafety cabinets sprayed with 70% ethanol prior to use.
Tumor volumes were determined prior to the initiation of treatment and were considered as the starting volumes. Thereafter, tumors were measured twice a week for the duration of the study. The long and short axes of each tumor were measured using a digital caliper in millimeters. The tumor volumes were calculated using the formula: width^2× length/2. The tumor volumes were expressed in cubic millimeters (mm^3).

Another assay deals with pS6RP. Briefly: pS6RP in PC3 tumors, MSD (Compound 2). The conditions noted are these: Mus musculus; for inhibition at 0.1 mg/kg: 0.1 mg/kg single oral dose; for inhibition at 0.3 mg/kg: 0.3 mg/kg single oral dose.
A further assay has as its system DNA-PKcs. The assay is described as follows: Total DNA-PKcs immunohistochemistry in PC3 tumors (Compound 2). The conditions noted are these: 5 mg/kg QD for 6 days, 2 hours after the last dose.
[1] abbreviates: 0.5 h, read-out: PD Marker Inhibition (%) pS6RP.
Where [2] appears, read: 1 h, read-out: PD Marker Inhibition (%) pS6RP.
[3] abbreviates: 3 h, read-out: PD Marker Inhibition (%) pS6RP.
[4] abbreviates: 6 h, read-out: PD Marker Inhibition (%) pS6RP.
Where [5] appears, read: 10 h, read-out: PD Marker Inhibition (%) pS6RP.
Setting [6] is: 24 h, read-out: PD Marker Inhibition (%) pS6RP.

Consider `CO[C@H]1CC[C@H](N2C(=O)CNc3ncc(-c4ccc(C(C)(C)O)nc4)nc32)CC1` [Compound 1, 7-(6-(2-hydroxypropan-2-yl)pyridin-3-yl)-1-((1r,4r)-4-methoxycyclohexyl)-3,4-dihydropyrazino-[2,3-b]pyrazin-2(1H)-one], for which the “tumor volume reduction compared with vehicle control” value in the assay with PC3 tumors (5 mg/kg BID) was 64.9%; in the assay with PC3 tumors (10 mg/kg BID), 79.9%. Also, the “tumor volume reduction compared to vehicle control” value in the assay on PC3 tumors (10 mg/kg QD oral) was determined as 46.1%; with PC3 tumors (25 mg/kg QD oral), 86.7%. Moreover, the average tumor volume in the assay with PC3 tumors (10 mg/kg QD, Day 31 (vehicle 712)) is reported as 383 mm^3; in the assay with PC3 tumors (25 mg/kg QD group, Day 52 after 3 weeks without dosing), “about 427 mm^3”; in the assay on PC3 tumors (25 mg/kg QD, Day 31 (158 on Day 11; vehicle 712)), 123 mm^3; in the assay on PC3 tumors (regression study, 10 mg/kg BID, day 43 (482.2±12.6 on day 20)), 343.6±32.6 mm^3. The “tumor inhibition compared to vehicle control” value in the assay on PC3 tumors (25 mg/kg Q2D) was determined as 72%; in the assay on PC3 tumors (25 mg/kg Q3D), 61%; in the assay on PC3 tumors (50 mg/kg Q3D), 82%; with PC3 tumors (50 mg/kg Q5D), 61%; in the assay on PC3 tumors (50 mg/kg Q7D) it was 49%. The tumor response entry is “Tumor regression” with PC3 tumors (25 mg/kg QD oral, 3 weeks); “significantly (p<0.01) slowed tumor growth” with PC3 tumors (regression study, 1 mg/kg BID, vs vehicle); “stasis of tumor growth” with PC3 tumors (regression study, 5 mg/kg BID); “regression of PC3 tumors” with PC3 tumors (regression study, 10 mg/kg BID); “regression of tumors initially during the first 2 weeks of dosing” in the assay with PC3 tumors (regression study, 25 mg/kg Q2D). Further, in the assay with PC3 tumors (25 mg/kg QD, second 3-week cycle), the “tumor volume at the end of the second cycle” value is reported as “approximately 729 mm^3”. Further, in the assay on PC3 tumors (BID, determined by 65% tumor volume inhibition), the “lowest (minimal) efficacious dose” value is listed as 5 mg/kg. In the assay with PC3 tumors (regression study, 25 mg/kg Q2D, day 43 (475.1±19.6 on day 20)), this compound had a tumor volume of 549.4±45.7 mm^3.

For `CCN1C(=O)CNc2ncc(-c3ccc(-c4nc[nH]n4)nc3C)nc21` [Compound 2, 1-ethyl-7-(2-methyl-6-(1H-1,2,4-triazol-3-yl)pyridin-3-yl)-3,4-dihydropyrazino[2,3-b]pyrazin-2(1H)-one], the inhibition at 0.1 mg/kg in the assay with pS6RP (setting [1]) is 45.7%; in the assay on pS6RP (setting [2]) it was 38.2%; in the assay on pS6RP (setting [3]) it was 27.2%; in the assay on pS6RP (setting [4]), 23.3%; with pS6RP (setting [5]) it was 17.6%; in the assay on pS6RP (setting [6]), 0%. Moreover, the inhibition at 0.3 mg/kg was 69.8% with pS6RP (setting [1]); 79.6% with pS6RP (setting [2]); 73.5% in the assay on pS6RP (setting [3]); 67.3% in the assay with pS6RP (setting [4]); 57.9% in the assay with pS6RP (setting [5]); 33.3% in the assay on pS6RP (setting [6]). For the same compound, the inhibition at 1 mg/kg is ~80% in the assay with pS6RP (1 mg/kg single dose, through 10 hours, read-out: inhibition of pS6RP in tumor); 84.6% in the assay on pS6RP (1 mg/kg single oral dose, 1 h, read-out: PD Marker Inhibition (%) pS6RP); 89.5% in the assay with pS6RP (1 mg/kg single oral dose, 3 h, read-out: PD Marker Inhibition (%) pS6RP); 82.8% in the assay with pS6RP (1 mg/kg single oral dose, 6 h, read-out: PD Marker Inhibition (%) pS6RP); 78.7% with pS6RP (1 mg/kg single oral dose, 10 h, read-out: PD Marker Inhibition (%) pS6RP); 0% in the assay on pS6RP (1 mg/kg single oral dose, 24 h, read-out: PD Marker Inhibition (%) pS6RP). The inhibition at 10 mg/kg with pS6RP (10 mg/kg single dose, through 24 hours, read-out: inhibition of both PD markers (pS6RP, pAKT (S473))) is ≥ 80%; in the assay on pS6RP (10 mg/kg single oral dose, 1 h, read-out: PD Marker Inhibition (%) pS6RP) it was 85.3%; in the assay on pS6RP (10 mg/kg single oral dose, 3 h, read-out: PD Marker Inhibition (%) pS6RP), 91.3%; in the assay on pS6RP (10 mg/kg single oral dose, 6 h, read-out: PD Marker Inhibition (%) pS6RP) it was 93.5%; with pS6RP (10 mg/kg single oral dose, 10 h, read-out: PD Marker Inhibition (%) pS6RP) it was 93.7%; in the assay with pS6RP (10 mg/kg single oral dose, 24 h, read-out: PD Marker Inhibition (%) pS6RP), 93.2%. Moreover, the “positive threshold area stained for DNA-PKcs vs vehicle” value in the assay with DNA-PKcs is listed as “no significant difference”.
